Test results published in patent US10479781B2, “Peptidyl nitril compounds as dipeptidyl peptidase I inhibitors” (Prozymex A/S, priority 2015, dated 2019).

How the values were obtained:
[1] = Test for metabolic stability (human liver microsomes); format: in vitro ADME; conditions: pH 7.4; human liver microsomes 1.0 mg/mL, 1 mM NADPH, test compound 5 μM, 37° C.
Method: Test for Metabolic Stability
The test for metabolic stability was performed by Absorption System, Exton, Pa. 19341, USA.
The test compound (DPPI inhibitor) was dissolved in 100% DMSO at a concentration of 10 mM. The reaction mixture, consisted of Mouse or Human Liver Microsomes (1.0 mg/mL), 1 mM NADPH, 100 mM Potassium Phosphate, pH 7.4, 10 mM Magnesium Chloride and test compound at a concentration of 5 μM.
An aliquot of the reaction mixture (without cofactors) was incubated in a shaking water bath at 37° C. for 3 minutes. Another aliquot of the reaction mixture was prepared as the negative control. The test compound was added into both the reaction mixture and the negative control at a final concentration of 5 μM.
The reaction was initiated by the addition of NADPH to 1 mM (not into the negative controls) and then incubated in a shaking water bath at 37° C. Aliquots (100 μL) were withdrawn at 0, 10, 20, 30, and 60 minutes or at 0, 15, 30 and 60 minutes and combined with 900 μL of ice-cold 50/50 acetonitrile/dH2O to terminate the reaction. A control (testosterone) was run simultaneously with the test compound in a separate reaction. […] The elimination half-lives associated with the disappearance of the test and control compounds were determined to compare their relative metabolic stability.

DPPI [2] = biological target: T1, DPPI (Homo sapiens, UniProt P53634); experiment: Human DPPI inhibition assay 2; format: biochemical; parameters: purchased UNIZYME Laboratories A/S; conditions: substrate Gly-Phe-paranitroanilide 750 μM, pH 4.5, 37° C.
T1 sequence (P53634 231-394 limits assumed): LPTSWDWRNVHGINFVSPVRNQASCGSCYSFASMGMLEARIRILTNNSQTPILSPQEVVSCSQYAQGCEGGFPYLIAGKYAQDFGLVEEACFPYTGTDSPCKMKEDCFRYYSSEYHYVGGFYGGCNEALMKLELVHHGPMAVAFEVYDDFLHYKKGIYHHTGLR
T1 sequence (P53634 25-134 limits assumed): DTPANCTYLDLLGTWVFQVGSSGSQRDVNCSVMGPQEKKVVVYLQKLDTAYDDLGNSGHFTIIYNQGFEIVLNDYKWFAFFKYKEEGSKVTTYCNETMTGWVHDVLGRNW
T1 sequence (P53634 395-463 limits assumed): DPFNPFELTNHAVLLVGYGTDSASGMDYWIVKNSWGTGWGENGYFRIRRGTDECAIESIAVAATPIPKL
Method: Human DPPI Inhibition Assay 2
Using this assay, the IC50 value of the compound of the invention may be determined using Gly-Phe-paranitroanilide as a DPPI specific substrate.
Assay buffer: 20 mM citric acid (2.1 g citric acid), 150 mM NaCl (4.4 g NaCl) and 2 mM EDTA (370 mg EDTA) was dissolved in 500 mL H2O, and pH was adjusted to 4.5 with HCl.
Substrate: Gly-Phe-paranitroanilide (Sigma Aldrich; Cat. No G0142) was used as the substrate for determination of IC50 values. Km was 2.2 mM. The substrate was solubilized in dimethylformamid to give a 0.2-0.5 M stock solution, which was then further diluted with stirring in assay buffer to a final concentration of 1 mM.
DPPI: Human DPPI (obtained from UNIZYME Laboratories A/S, DK-2970 Hørsholm, Denmark) was stored at −20° C. in a buffer containing 2.5 mM Na-phosphate, 150 mM NaCl, 2 mM cysteamine, 50% glycerol, pH 7.0 at a concentration of 2.2 mg/mL (≈12 μM). This stock solution was diluted 800-3200 times in assay buffer to a concentration of about 4-15 nM.
Assay conditions: The assay was performed in 96-well plates. […] The absorption was measured at 405 nm at 37° C. for every 90 seconds for 12 minutes or every 20 seconds for 4 minutes. […] IC50 was determined using a 4-parameter logistic equation in a non-linear curve fitting routine.

DPPI [3] = biological target: T1, DPPI; experiment: Cell based DPPI inhibition assay 2; parameters: endogenous in cells; host or cells: U937 cells; conditions: neutrophil elastase activity in U937 cells grown 48 hours with inhibitor
Method: Cell Based DPPI Inhibition Assay 2
Using the cell based assay described below, the biological activity of the compounds of the invention or other DPPI inhibitors may be determined.
Neutrophil elastase enzymatic activities in U937 cells grown in the presence of DPPI inhibitors were measured by methods modified from Méthot N; Rubin J; Guay D; Beaulieu C; Ethier D; Reddy T J; Riendeau D and Percival M D (2007) J Biol Chem, 282, 20836-20846.
U937 cells were propagated in culture media (RPMI 1640, supplemented with 10% FBS, 10 mM Hepes, 1 mM sodium pyrovate, 100 units/ml of each of penicillin and streptomycin). Cells were seeded in 12-well plates at ≈0.2×10^6 cells/ml in volumes of 1.5 ml per well in the presence of no or increasing concentrations of DPPI inhibitor. 12 points in duplicate in the range of 0.01 nM to 10 μM inhibitor were tested. […]
The activity of neutrophil elastase was determined by measuring the enzymatic release of chromogenic p-nitroaniline from the substrate MetOSuc-Ala-Ala-Pro-Val-pNA, which leads to an increase in absorbance at 405 nm. Assays were carried out in 96-well plates in a final volume of 200 μL at 37° C., and absorbance was measured 8 times during 21 minutes using a plate reader. IC50 was determined using a 4-parameter logistic equation in a non-linear curve fitting routine.

half-life at 5 μM [1]: > 120 min
IC50 (DPPI [2]): ~6 nM
IC50 (DPPI [3]): ~2.5 nM
Structure (SMILES): CN1CCN(Cc2ccc(-c3ccc(C[C@@H](C#N)NC(=O)C4(N)CCOCC4)c(F)c3)cc2)CC1 [PZ1101, (S)-4-amino-N-(1-cyano-2-(3-fluoro-4′-((4-methylpiperazin-1-yl)methyl)-[1,1′-biphenyl]-4-yl)ethyl)tetrahydro-2H-pyran-4-carboxamide]
